The results in this text go back to US20260241012A1, “1,8-NAPHTHYRIDIN-2-ONE HETEROBIFUNCTIONAL BCL6 DEGRADERS” (Treeline Biosciences, Inc., priority 2022, published 2026).

The target of the experiment is T1, N-terminal HiBiT tagged BCL6 (Homo sapiens, UniProt P41182).
T1 construct: expressed in transfected cells; host or cells: HT1080 (ATCC CCL-121), stably transduced with lentivirus pLV-UBC-N-HiBiT-BCL6-PGK-puro
Description: HiBiT based degradation assay. In kind it is cell-based. Conditions: HT1080 cells expressing N-terminal HiBiT tagged BCL6, 5 hours of incubation; for Ymin (5 hr): BCL6 degradation normalized with DMSO control; for DC50: four-parameter logistic model, read-out: EC50 (5 hr). Put shortly: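 Degradation measured by luminescence from the Nano-Glo HiBiT lytic reagent (15 min, room temperature), normalized to DMSO controls and fitted to a four-parameter curve.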

Each structure is given as a SMILES string.

Turning to `CNC(=O)COc1cc2cc(Nc3nc(N4CCN(CC5CCN(c6cccc7c(C8CCC(=O)NC8=O)nn(C)c67)CC5)[C@@H](CO)C4)ncc3Cl)cnc2n(C(C)C)c1=O` (stereo partly drawn) [Compound 146b, 2-((6-((5-chloro-2-((3R)-4-((1-(3-(2,6-dioxopiperidin-3-yl)-1-methyl-1H-indazol-7-yl)piperidin-4-yl)methyl)-3-(hydroxymethyl)piperazin-1-yl)pyrimidin-4-yl)amino)-1-isopropyl-2-oxo-1,2-dihydro-1,8-naphthyridin-3-yl)oxy)-N-methylacetamide], the “Ymin (5 hr)” value is given as “++++ (Ymin < 30%)” and the DC50 fell in the range of 10 to 100 nM.
For `CNC(=O)COc1cc2cc(Nc3nc(N4CC[C@H](CN5CCN(c6ccc7c(C8CCC(=O)NC8=O)nn(C)c7c6)CC5)[C@@H](C)C4)ncc3Cl)cnc2n(C(C)C)c1=O` (stereo partly drawn) [Compound 176b, 2-((6-((5-chloro-2-((3R,4S)-4-((4-(3-(2,6-dioxopiperidin-3-yl)-1-methyl-1H-indazol-6-yl)piperazin-1-yl)methyl)-3-methylpiperidin-1-yl)pyrimidin-4-yl)amino)-1-isopropyl-2-oxo-1,2-dihydro-1,8-naphthyridin-3-yl)oxy)-N-methylacetamide] the same measures were “+++ (30% ≤ Ymin < 50%)” and under 10 nM.
Take `CNC(=O)COc1cc2cc(Nc3nc(N4CCC(OC5CCN(c6cccc7c(C8CCC(=O)NC8=O)nn(C)c67)CC5)CC4)ncc3Cl)cnc2n(C(C)C)c1=O` (stereo not shown) [Compound 225, 2-[[6-[[5-chloro-2-[4-[[1-[3-(2,6-dioxo-3-piperidyl)-1-methyl-indazol-7-yl]-4-piperidyl]oxy]-1-piperidyl]pyrimidin-4-yl]amino]-1-isopropyl-2-oxo-1,8-naphthyridin-3-yl]oxy]-N-methyl-acetamide]: the “Ymin (5 hr)” value is on record as “++++ (Ymin < 30%)” and the DC50 lay in the range of 10 to 100 nM.
For the molecule `CNC(=O)COc1cc2cc(Nc3nc(N4CC5(CCC(Oc6ccc7c(C8CCC(=O)NC8=O)nn(C)c7c6)CC5)C4)ncc3Cl)cnc2n(C)c1=O` (stereo not shown) [Compound 144, 2-((6-((5-chloro-2-(7-((3-(2,6-dioxopiperidin-3-yl)-1-methyl-1H-indazol-6-yl)oxy)-2-azaspiro[3.5]nonan-2-yl)pyrimidin-4-yl)amino)-1-methyl-2-oxo-1,2-dihydro-1,8-naphthyridin-3-yl)oxy)-N-methylacetamide], the “Ymin (5 hr)” value is “++++ (Ymin < 30%)” and the DC50 is under 10 nM.
For `CNC(=O)COc1cc2cc(Nc3nc(N4CC[C@@H](CN5CCN(c6cccc7c(C8CCC(=O)NC8=O)nn(C)c67)CC5)[C@@H](C)C4)ncc3Cl)cnc2n(C(C)C)c1=O` (stereo partly drawn) [Compound 177b, 2-[[6-[[5-chloro-2-[(3R,4R)-4-[[4-[3-(2,6-dioxo-3-piperidyl)-1-methyl-indazol-7-yl]piperazin-1-yl]methyl]-3-methyl-1-piperidyl]pyrimidin-4-yl]amino]-1-isopropyl-2-oxo-1,8-naphthyridin-3-yl]oxy]-N-methyl-acetamide] the same measures were “+++ (30% ≤ Ymin < 50%)” and 10 to 100 nM.
For `CNC(=O)COc1cc2cc(Nc3cc(N4CCN(CC5CCN(c6cccc7c(C8CCC(=O)NC8=O)nn(C)c67)CC5)[C@H](CO)C4)ncc3Cl)cnc2n(C(C)C)c1=O` (stereo partly drawn) [Compound 233a, 2-[[6-[[5-chloro-2-[(3S)-4-[[1-[3-(2,6-dioxo-3-piperidyl)-1-methyl-indazol-7-yl]-4-piperidyl]methyl]-3-(hydroxymethyl)piperazin-1-yl]-4-pyridyl]amino]-1-isopropyl-2-oxo-1,8-naphthyridin-3-yl]oxy]-N-methyl-acetamide] the same measures were “++++ (Ymin < 30%)” and 10 to 100 nM.
For `CNC(=O)COc1cc2cc(Nc3nc(N4CCN(CC5CCN(c6ccc7c(C8CCC(=O)NC8=O)nn(C)c7c6)CC5)CC4)ncc3Cl)cnc2n(C(C)C)c1=O` (stereo not shown) [Compound 104, 2-((6-((5-chloro-2-(4-((1-(3-(2,6-dioxopiperidin-3-yl)-1-methyl-1H-indazol-6-yl)piperidin-4-yl)methyl)piperazin-1-yl)pyrimidin-4-yl)amino)-1-isopropyl-2-oxo-1,2-dihydro-1,8-naphthyridin-3-yl)oxy)-N-methylacetamide], the “Ymin (5 hr)” value is given as “+++ (30% ≤ Ymin < 50%)” and the DC50 is under 10 nM.
On the same counts, the results for `CNC(=O)COc1cc2cc(Nc3nc(N4CCC(CN5CCN(c6ccc7c(C8CCC(=O)NC8=O)nn(C)c7c6)CC5)CC4)ncc3Cl)cnc2n(C)c1=O` (stereo not shown) [Compound 133, 2-((6-((5-chloro-2-(4-((4-(3-(2,6-dioxopiperidin-3-yl)-1-methyl-1H-indazol-6-yl)piperazin-1-yl)methyl)piperidin-1-yl)pyrimidin-4-yl)amino)-1-methyl-2-oxo-1,2-dihydro-1,8-naphthyridin-3-yl)oxy)-N-methylacetamide] are “++++ (Ymin < 30%)” and under 10 nM.
For `CNC(=O)COc1cc2cc(Nc3nc(N4CCN(CC5CCN(c6cccc7c(C8CCC(=O)NC8=O)nn(C)c67)CC5)C[C@@H]4C)ncc3Cl)cnc2n(C(C)C)c1=O` (stereo partly drawn) [Compound 168a, 2-[[6-[[5-chloro-2-[(2S)-4-[[1-[3-(2,6-dioxo-3-piperidyl)-1-methyl-indazol-7-yl]-4-piperidyl]methyl]-2-methyl-piperazin-1-yl]pyrimidin-4-yl]amino]-1-isopropyl-2-oxo-1,8-naphthyridin-3-yl]oxy]-N-methyl-acetamide] the same measures were “+++ (30% ≤ Ymin < 50%)” and 10 to 100 nM.
With `CNC(=O)COc1cc2cc(Nc3nc(N4CCC(CC5CCN(c6cccc7c(C8CCC(=O)NC8=O)nn(C)c67)CC5)CC4)ncc3Cl)cnc2n(C)c1=O` (stereo not shown) [Compound 139, 2-((6-((5-chloro-2-(4-((1-(3-(2,6-dioxopiperidin-3-yl)-1-methyl-1H-indazol-7-yl)piperidin-4-yl)methyl)piperidin-1-yl)pyrimidin-4-yl)amino)-1-methyl-2-oxo-1,2-dihydro-1,8-naphthyridin-3-yl)oxy)-N-methylacetamide], the “Ymin (5 hr)” value is given as “+++ (30% ≤ Ymin < 50%)” and the DC50 lay within 100 to 1000 nM.
For `CNC(=O)COc1cc2cc(Nc3nc(N4CCC5(CCC(Nc6ccc7c(C8CCC(=O)NC8=O)nn(C)c7c6)CC5)CC4)ncc3Cl)cnc2n(C(C)C)c1=O` (stereo not shown) [Compound 199, 2-[[6-[[5-chloro-2-[9-[[3-(2,6-dioxo-3-piperidyl)-1-methyl-indazol-6-yl]amino]-3-azaspiro[5.5]undecan-3-yl]pyrimidin-4-yl]amino]-1-isopropyl-2-oxo-1,8-naphthyridin-3-yl]oxy]-N-methyl-acetamide] the same measures were “++++ (Ymin < 30%)” and under 10 nM.
Turning to `CNC(=O)COc1cc2cc(Nc3nc(N4CCC(CN5CCN(c6ccc7c(C8CCC(=O)NC8=O)nn(C)c7c6)C[C@@H]5CO)CC4)ncc3Cl)cnc2n(C(C)C)c1=O` (stereo partly drawn) [Compound 232b, 2-[[6-[[5-chloro-2-[4-[[(2R)-4-[3-(2,6-dioxo-3-piperidyl)-1-methyl-indazol-6-yl]-2-(hydroxymethyl)piperazin-1-yl]methyl]-1-piperidyl]pyrimidin-4-yl]amino]-1-isopropyl-2-oxo-1,8-naphthyridin-3-yl]oxy]-N-methyl-acetamide], the “Ymin (5 hr)” value is recorded as “+++ (30% ≤ Ymin < 50%)” and the DC50 is under 10 nM.
For the molecule `CNC(=O)COc1cc2cc(Nc3nc(N4CC5(CCC(Oc6cccc7c(C8CCC(=O)NC8=O)nn(C)c67)CC5)C4)ncc3Cl)cnc2n(C(C)C)c1=O` (stereo not shown) [Compound 181, 2-[[6-[[5-chloro-2-[7-[3-(2,6-dioxo-3-piperidyl)-1-methyl-indazol-7-yl]oxy-2-azaspiro[3.5]nonan-2-yl]pyrimidin-4-yl]amino]-1-isopropyl-2-oxo-1,8-naphthyridin-3-yl]oxy]-N-methyl-acetamide], the “Ymin (5 hr)” value is “+++ (30% ≤ Ymin < 50%)” and the DC50 lay within 10 to 100 nM.
On the same counts, the results for `CNC(=O)COc1cc2cc(Nc3nc(N4CCN(CC5CCN(c6cccc7c(C8CCC(=O)NC8=O)nn(C)c67)CC5)CC4)ncc3Cl)cnc2n(C(C)C)c1=O` (stereo not shown) [Compound 103, 2-((6-((5-chloro-2-(4-((1-(3-(2,6-dioxopiperidin-3-yl)-1-methyl-1H-indazol-7-yl)piperidin-4-yl)methyl)piperazin-1-yl)pyrimidin-4-yl)amino)-1-isopropyl-2-oxo-1,2-dihydro-1,8-naphthyridin-3-yl)oxy)-N-methylacetamide] are “++++ (Ymin < 30%)” and 10 to 100 nM.
Turning to `CNC(=O)COc1cc2cc(Nc3nc(N4CCC5(CC4)CC(N4CCN(c6ccc7c(C8CCC(=O)NC8=O)nn(C)c7c6)CC4)C5)ncc3Cl)cnc2n(C(C)C)c1=O` (stereo not shown) [Compound 229, 2-[[6-[[5-chloro-2-[2-[4-[3-(2,6-dioxo-3-piperidyl)-1-methyl-indazol-6-yl]piperazin-1-yl]-7-azaspiro[3.5]nonan-7-yl]pyrimidin-4-yl]amino]-1-isopropyl-2-oxo-1,8-naphthyridin-3-yl]oxy]-N-methyl-acetamide], the “Ymin (5 hr)” value is listed as “++++ (Ymin < 30%)” and the DC50 was under 10 nM.
For `CNC(=O)COc1cc2cc(Nc3nc(N4CC5(CC[C@@H](Oc6ccc7c(C8CCC(=O)NC8=O)nn(C)c7c6)[C@@H](C)C5)C4)ncc3Cl)cnc2n(C(C)C)c1=O` (relative stereo) [Compound 185b, 2-[[6-[[5-chloro-2-[(6S,7R)-7-[3-(2,6-dioxo-3-piperidyl)-1-methyl-indazol-6-yl]oxy-6-methyl-2-azaspiro[3.5]nonan-2-yl]pyrimidin-4-yl]amino]-1-isopropyl-2-oxo-1,8-naphthyridin-3-yl]oxy]-N-methyl-acetamide] the same measures were “++++ (Ymin < 30%)” and under 10 nM.
Take `CNC(=O)COc1cc2cc(Nc3nc(N4CC5(CC[C@H](Nc6ccc7c(C8CCC(=O)NC8=O)nn(C)c7c6)[C@@H](C)C5)C4)ncc3Cl)cnc2n(C)c1=O` (single isomer, unassigned) [Compound 156a]: the “Ymin (5 hr)” value was “++++ (Ymin < 30%)” and the DC50 is under 10 nM.
